Consider 1 compound from patent US20140228287A1, “1-[(3-CYANO-PYRIDIN-2-YL)METHYL]-3-METHYL-7-(2-BUTYN-1-YL)-8-[3-(R)-AMINO-PIPERIDIN-1-YL]-AXANTHINE FOR THE TREATMENT OF A METABOLIC DISORDER OF A PREDOMINANTLY CARNIVOROUS NON-HUMAN ANIMAL” (BOEHRINGER INGELHEIM VETMEDICA GMBH, priority 2010, published 2014).

Counter-ions that a name gives are not always drawn.

What is called IC50 is the concentration that inhibits the measured activity by half.

Series [1] deals with GLP-1. The series can be described thus: Single dose study (1.0/5.0/10.0 mg/kg) in cats: GLP-1 after feeding. As to conditions: single oral 1, 5, 10 mg/kg; feeding at 8 h after treatment. It counts as in vivo, cat. As to the method:
(§1) Twelve clinically healthy male adult domestic short hair cats with a body weight range of 3.5-4.7 kg were used in this study. All animals were treated orally once via a stomach tube. Blood samples for pharmacokinetic and pharmacodynamic (DPP IV activity) investigations were drawn at 0 h (i.e. prior to treatment), 30 min as well as 1, 2, 4, 8, 8.5, 9, 12, 24, 36, 48, 72, 84 and 96 h after treatment. Blood samples for pharmacodynamic (glucagon-like peptide 1 concentrations) investigations were drawn at −16 (i.e. prior to feeding), −15.5, −15 h as well as at 8 h (i.e. prior to feeding), 8.5 and 9 h after treatment.

Series [2] concerns the target DPP 8 (Homo sapiens, UniProt Q6V1X1). The series can be described thus: In vitro selectivity, human proteases: DPP 8. It counts as biochemical. The text has this: (§2) In order to determine the in vitro selectivity of 1-[(3-cyano-pyridin-2-yl)methyl]-3-methyl-7-(2-butyn-1-yl)-8-[3-(R)-amino-piperidin-1-yl]-xanthine, the ability of this compound to inhibit a number of human proteases was investigated as described in Thomas et al. (2008), J. Pharmacol. Exp. Ther., vol. 325, p. 175-182, chapter In vitro DPP-4 Inhibition Assay, p. 176.

The target of series [3] is alanine-amino-peptidase (Homo sapiens, UniProt P15144). In words: In vitro selectivity, human proteases: alanine-amino-peptidase. In kind it is biochemical. To be noted: up to 100 μM.
Description: as §2

Series [4] has as its target plasmin (Homo sapiens, UniProt P00747). In words: In vitro selectivity, human proteases: plasmin. It counts as biochemical. As to conditions: up to 100 μM.
Description: as §2

Series [5] relates to diabetic db/db mice. The series can be described thus: Delayed OGTT in diabetic db/db mice. In kind it is in vivo, mouse. To be noted: 1 mg/kg 16 hours before the test. As to the method:
A delayed oral glucose tolerance test (OGTT) was applied to diabetic db/db mice and diabetic ZDF rats, as describes in the following.
Male obese diabetic db/db mice (C57BL/KSJ@Rj-db) were obtained from Janvier (France). Animals were fed ad libitum with a standard pelleted diet (Diet No. 3438 [containing 19% protein, 4.5% fat], Provimi Kliba, Switzerland) and had free access to water. Animals were housed in groups with a 12 h/12 h light/dark cycle (lights out between 6 p.m. and 6 a.m.). The mice used for these experiments were between 9 and 10 weeks of age.
The day before the OGTT, a blood sample from db/db mice or ZDF rats fasted for 2 hours was obtained by cutting the tip of the tail without anaesthesia and the animals were randomized for glucose (n=7 per group). The animals were fed again for 2 hours and then orally administered with either vehicle or 1-[(3-cyano-pyridin-2-yl)methyl]-3-methyl-7-(2-butyn-1-yl)-8-[3-(R)-amino-piperidin-1-yl]-xanthine monohydrochloride at doses between 0.3 and 3 mg/kg bw. A basal blood sample (pre-load) was obtained the next morning after overnight fasting for 16 hours by cutting the tip of the tail without anaesthesia. […] Additional blood samples were taken from the tip of the tail 30 min, 60 min, 90 min, 120 min, and 180 min after the glucose load, and blood glucose was measured. […]

Series [6] concerns the target thrombin (Homo sapiens, UniProt P00734). In words: In vitro selectivity, human proteases: thrombin. In kind it is biochemical. To be noted: up to 100 μM.
Description: as §2

The nature of series [7]: Single dose study (1.0/5.0/10.0 mg/kg) in cats: adverse events. In kind it is in vivo, cat. To be noted: single oral 1, 5, 10 mg/kg. As to the method: The aim of this study was to investigate the PK/PD behaviour of 1-[(3-cyano-pyridin-2-yl)methyl]-3-methyl-7-(2-butyn-1-yl)-8-[3-(R)-amino-piperidin-1-yl]-xanthine in the cat following a single oral administration of 0, 1, 5 and 10 mg/kg body weight (dosages were based on the free base: 1 mg 1-[(3-cyano-pyridin-2-yl)methyl]-3-methyl-7-(2-butyn-1-yl)-8-[3-(R)-amino-piperidin-1-yl]-xanthine monohydrochloride corresponds to 0.923 mg 1-[(3-cyano-pyridin-2-yl)methyl]-3-methyl-7-(2-butyn-1-yl)-8-[3-(R)-amino-piperidin-1-yl]-xanthine free base).
as §1

Series [8] has as its target T1, plasma DPP-4 (Rattus norvegicus, UniProt P14740).
T1 construct: from tissue
In words: Inhibition of DPP-4 in rat plasma (in vitro). In kind it is biochemical. To be noted: wistar rat plasma. The protocol: Plasma obtained from 3 different cats and one Wistar rat as control were each incubated with a range of concentrations of 1-[(3-cyano-pyridin-2-yl)methyl]-3-methyl-7-(2-butyn-1-yl)-8-[3-(R)-amino-piperidin-1-yl]-xanthine monohydrochloride. Plasma DPP-4 activity was measured in the following way (which is also described in Eckhard et al. (2007), J. Med. Chem., Vol. 50, 6450-6453, Supporting Information).
Rat and cat plasma was used for ex vivo measurement of DDP-4 activity. Blood was collected in EDTA tubes and subjected to centrifugation. The resultant supernatant was aliquoted and frozen. […]
The assay itself was initiated by mixing 50 μl of diluted plasma with 50 μl of diluted substrate (Ala-Pro-AFC) and performed in black flat-bottom 96-well plates. The plates were then incubated at room temperature for 1 h and fluorescence was measured at excitation/emission wavelengths of 405/535 nm. Data analysis was performed by calculating the fluorescence in the presence of the test compound compared to the fluorescence of the vehicle control after subtracting the background fluorescence.
From a plot of concentration against activity (equivalent to fluorescence units) kinetic data could be collected, e.g. the half-maximal inhibitory concentration (IC50) of the tested compound in the different animals, which data are given in the following Table 2.

For series [9], the target named is Prolyl-Oligo Peptidase (or Prolyl Endopeptidase) (Homo sapiens, UniProt P48147). The series can be described thus: In vitro selectivity, human proteases: Prolyl-Oligo Peptidase. It counts as biochemical. To be noted: up to 100 μM.
Description: as §2

The target in series [10] is DPP-II (Homo sapiens, UniProt Q9UHL4). The series can be described thus: In vitro selectivity, human proteases: DPP-II. To be noted: up to 100 μM. In kind it is biochemical.
Description: as §2

T1 sequence (P14740 37-767 limits assumed): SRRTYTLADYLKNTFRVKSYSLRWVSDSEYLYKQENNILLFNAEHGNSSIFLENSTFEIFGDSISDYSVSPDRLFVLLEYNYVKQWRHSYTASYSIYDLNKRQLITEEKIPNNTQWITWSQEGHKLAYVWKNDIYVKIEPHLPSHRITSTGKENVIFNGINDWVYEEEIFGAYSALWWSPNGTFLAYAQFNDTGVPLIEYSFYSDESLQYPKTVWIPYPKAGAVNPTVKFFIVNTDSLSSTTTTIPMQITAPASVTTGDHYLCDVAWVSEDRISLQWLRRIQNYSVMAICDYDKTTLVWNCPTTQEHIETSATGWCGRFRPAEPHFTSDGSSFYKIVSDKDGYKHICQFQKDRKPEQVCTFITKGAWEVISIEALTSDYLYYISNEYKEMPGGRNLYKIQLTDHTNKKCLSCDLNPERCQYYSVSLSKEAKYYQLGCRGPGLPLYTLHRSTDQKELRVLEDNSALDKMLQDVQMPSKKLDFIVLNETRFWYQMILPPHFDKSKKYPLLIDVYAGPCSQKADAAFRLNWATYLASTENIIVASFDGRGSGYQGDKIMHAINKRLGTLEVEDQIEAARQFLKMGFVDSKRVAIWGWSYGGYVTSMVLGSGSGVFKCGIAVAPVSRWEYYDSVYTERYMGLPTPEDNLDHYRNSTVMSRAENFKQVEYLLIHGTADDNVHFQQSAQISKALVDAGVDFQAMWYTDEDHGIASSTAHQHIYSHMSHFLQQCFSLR
plasmin, sequence (P00747 581-810 limits assumed): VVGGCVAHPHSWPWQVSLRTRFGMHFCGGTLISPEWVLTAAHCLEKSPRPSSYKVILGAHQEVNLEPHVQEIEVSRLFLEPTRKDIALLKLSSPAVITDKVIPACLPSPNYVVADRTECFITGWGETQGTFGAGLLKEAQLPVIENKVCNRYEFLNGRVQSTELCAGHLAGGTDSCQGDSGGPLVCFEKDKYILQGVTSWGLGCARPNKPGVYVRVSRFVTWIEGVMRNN
plasmin, sequence (P00747 97-580 partner limits assumed): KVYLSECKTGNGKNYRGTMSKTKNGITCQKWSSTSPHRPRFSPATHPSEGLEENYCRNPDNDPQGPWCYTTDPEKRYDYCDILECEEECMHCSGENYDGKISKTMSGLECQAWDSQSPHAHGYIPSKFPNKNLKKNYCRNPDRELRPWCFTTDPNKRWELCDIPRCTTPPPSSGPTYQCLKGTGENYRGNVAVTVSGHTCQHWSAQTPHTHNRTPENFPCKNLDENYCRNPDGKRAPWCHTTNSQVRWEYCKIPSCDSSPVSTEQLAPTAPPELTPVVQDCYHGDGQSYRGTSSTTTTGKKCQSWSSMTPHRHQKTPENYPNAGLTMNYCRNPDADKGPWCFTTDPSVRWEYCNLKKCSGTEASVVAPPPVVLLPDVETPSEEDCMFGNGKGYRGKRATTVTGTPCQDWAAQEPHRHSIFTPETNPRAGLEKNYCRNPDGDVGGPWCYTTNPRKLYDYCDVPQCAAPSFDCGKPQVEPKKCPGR
Prolyl-Oligo Peptidase (or Prolyl Endopeptidase), sequence (P48147 whole entry): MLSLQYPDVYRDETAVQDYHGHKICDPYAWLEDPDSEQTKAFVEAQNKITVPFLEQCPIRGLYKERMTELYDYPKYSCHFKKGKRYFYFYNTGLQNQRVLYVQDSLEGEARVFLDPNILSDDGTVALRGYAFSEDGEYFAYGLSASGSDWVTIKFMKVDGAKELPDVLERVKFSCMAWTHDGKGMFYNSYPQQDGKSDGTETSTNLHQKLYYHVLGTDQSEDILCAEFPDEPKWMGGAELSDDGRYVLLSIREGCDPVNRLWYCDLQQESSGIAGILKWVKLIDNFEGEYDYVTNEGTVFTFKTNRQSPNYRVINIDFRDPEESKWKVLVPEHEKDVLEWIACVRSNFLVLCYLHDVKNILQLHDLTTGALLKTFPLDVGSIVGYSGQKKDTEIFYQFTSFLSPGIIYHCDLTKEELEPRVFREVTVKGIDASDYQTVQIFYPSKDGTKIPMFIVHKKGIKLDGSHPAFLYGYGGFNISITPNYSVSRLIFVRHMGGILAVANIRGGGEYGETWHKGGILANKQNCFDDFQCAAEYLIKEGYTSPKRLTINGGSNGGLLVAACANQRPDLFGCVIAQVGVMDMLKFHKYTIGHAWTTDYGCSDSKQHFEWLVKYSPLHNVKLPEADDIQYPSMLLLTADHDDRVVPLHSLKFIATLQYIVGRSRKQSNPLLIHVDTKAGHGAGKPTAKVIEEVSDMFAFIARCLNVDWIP
DPP 8, sequence (Q6V1X1 whole entry): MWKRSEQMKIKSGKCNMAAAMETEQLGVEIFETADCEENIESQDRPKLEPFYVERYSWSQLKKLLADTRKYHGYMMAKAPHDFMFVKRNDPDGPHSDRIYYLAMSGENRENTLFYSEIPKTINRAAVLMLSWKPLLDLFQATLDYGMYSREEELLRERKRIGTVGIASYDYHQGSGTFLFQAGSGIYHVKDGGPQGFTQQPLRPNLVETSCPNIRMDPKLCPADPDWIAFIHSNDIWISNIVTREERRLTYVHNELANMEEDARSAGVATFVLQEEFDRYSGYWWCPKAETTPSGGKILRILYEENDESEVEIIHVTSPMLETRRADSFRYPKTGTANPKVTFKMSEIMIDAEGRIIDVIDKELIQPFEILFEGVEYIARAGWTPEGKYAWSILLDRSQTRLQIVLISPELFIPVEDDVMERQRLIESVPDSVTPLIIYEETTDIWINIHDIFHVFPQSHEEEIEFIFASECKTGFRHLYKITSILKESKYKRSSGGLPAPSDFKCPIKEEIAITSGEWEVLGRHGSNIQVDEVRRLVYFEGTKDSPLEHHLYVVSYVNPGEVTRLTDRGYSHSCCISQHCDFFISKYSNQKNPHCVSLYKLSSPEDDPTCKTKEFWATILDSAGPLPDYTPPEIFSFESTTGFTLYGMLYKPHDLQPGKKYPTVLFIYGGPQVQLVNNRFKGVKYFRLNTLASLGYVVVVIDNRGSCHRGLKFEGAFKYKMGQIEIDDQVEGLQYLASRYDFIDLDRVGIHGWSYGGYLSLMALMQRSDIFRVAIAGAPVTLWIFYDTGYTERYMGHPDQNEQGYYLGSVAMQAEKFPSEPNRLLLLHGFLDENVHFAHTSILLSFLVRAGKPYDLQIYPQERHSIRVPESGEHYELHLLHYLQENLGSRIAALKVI
alanine-amino-peptidase, sequence (P15144 whole entry): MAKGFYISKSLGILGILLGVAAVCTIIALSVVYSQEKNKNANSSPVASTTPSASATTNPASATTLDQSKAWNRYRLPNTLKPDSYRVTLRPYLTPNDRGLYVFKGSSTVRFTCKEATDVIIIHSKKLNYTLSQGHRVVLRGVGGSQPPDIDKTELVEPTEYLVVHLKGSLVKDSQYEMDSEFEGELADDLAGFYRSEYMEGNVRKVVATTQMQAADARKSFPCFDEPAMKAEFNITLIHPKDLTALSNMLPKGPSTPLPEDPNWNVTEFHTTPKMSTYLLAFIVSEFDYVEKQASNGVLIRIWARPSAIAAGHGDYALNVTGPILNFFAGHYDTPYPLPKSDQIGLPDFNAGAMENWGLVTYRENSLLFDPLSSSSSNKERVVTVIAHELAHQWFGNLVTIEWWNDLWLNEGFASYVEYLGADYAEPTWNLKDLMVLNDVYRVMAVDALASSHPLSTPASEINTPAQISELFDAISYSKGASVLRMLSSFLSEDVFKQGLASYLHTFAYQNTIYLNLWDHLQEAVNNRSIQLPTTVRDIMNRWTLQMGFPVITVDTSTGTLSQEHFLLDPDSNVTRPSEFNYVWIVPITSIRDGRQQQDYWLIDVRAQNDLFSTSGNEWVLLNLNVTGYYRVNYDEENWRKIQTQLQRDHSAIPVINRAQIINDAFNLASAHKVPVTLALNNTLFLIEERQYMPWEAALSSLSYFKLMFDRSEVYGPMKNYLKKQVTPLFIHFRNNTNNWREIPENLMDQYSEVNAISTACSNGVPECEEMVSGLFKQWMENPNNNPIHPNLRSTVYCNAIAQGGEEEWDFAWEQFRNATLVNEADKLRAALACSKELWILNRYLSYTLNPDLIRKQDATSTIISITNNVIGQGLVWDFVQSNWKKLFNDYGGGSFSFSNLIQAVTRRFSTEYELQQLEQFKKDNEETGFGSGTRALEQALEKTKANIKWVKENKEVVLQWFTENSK

Consider `CC#CCn1c(N2CCC[C@@H](N)C2)nc2c1c(=O)n(Cc1ncccc1C#N)c(=O)n2C` [1-[(3-cyano-pyridin-2-yl)methyl]-3-methyl-7-(2-butyn-1-yl)-8-[3-(R)-amino-piperidin-1-yl]-xanthine monohydrochloride], for which the “mean GLP-1 concentration after feeding” value in series [1] was “an increase of the mean GLP-1 concentration was observed after feeding”. Moreover, the IC50 in series [2] was determined as 95 µM. The “inhibitory effect on alanine-amino-peptidase” value in series [3] was “did not exert any inhibitory effect”. In addition, the “inhibitory effect on plasmin” value in [4] was “did not exert any inhibitory effect”. Further, the “reduction of glucose AUC in OGTT” value in [5] amounted to 39%. Moreover, the “inhibitory effect on thrombin” value in series [6] was “did not exert any inhibitory effect”. For the same compound, in [7], the adverse events entry is on record as “No specific adverse events were observed”. In [8], this compound gave an IC50 of 0.00195 µM and a hillslope of −0.8462. The “inhibitory effect on Prolyl-Oligo Peptidase” value in series [9] is “did not exert any inhibitory effect”. Further, in [10], the “inhibitory effect on DPP-II” value is recorded as “did not exert any inhibitory effect”.
